Key:
K. pneumoniae = assay: bactericidal activity, percent bacterial survival, K. pneumoniae suspension; type: cell-based, Klebsiella pneumoniae; details: 20 mM Tris pH 8.0, 37° C.
Method: (§1) All tests in the following examples were performed at 37° C. The efficacy of the enhanced broad range bactericides was determined by assaying bactericidal activity as measured by the percent bacterial survival after treatment with the bactericide. Generally, after incubation of a 10^7 cell per ml suspension of target species with the novel bactericide for specified lengths of time, bacteria were collected by centrifugation for 2 minutes. […] Surviving bacteria were determined by scoring colony forming units (CFU) after incubation for 24-48 hours at 37° C.
The effect was measured as a function of percentage bacterial survival after 2 hours.

Listeria monocytogenes [1] = assay: bactericidal activity, percent survival, Listeria monocytogenes in Tris buffer; type: cell-based; details: 20 mM Tris-HCl pH 8.0
Method: (§2) All tests in the following examples were performed at 37° C. The efficacy of the enhanced broad range bactericides was determined by assaying bactericidal activity as measured by the percent bacterial survival after treatment with the bactericide. Generally, after incubation of a 10^7 cell per ml suspension of target species with the novel bactericide for specified lengths of time, bacteria were collected by centrifugation for 2 minutes. […] Surviving bacteria were determined by scoring colony forming units (CFU) after incubation for 24-48 hours at 37° C. An effective bactericide according to this invention is one which allows less than 0.1% of the initial viable count of the bacteria to survive.
(§3) Incubations were performed in 20 mM TrisHCl, pH 8.0 at 37° C.

Streptococcus mutans [2] = assay: bactericidal activity, percent survival, Streptococcus mutans in Tris buffer; type: cell-based; details: for % Survival (S. mutans kinetics): nisin 0, 1.0 mM EDTA, Tris-HCl pH 7.3
Method: (§6) All tests in the following examples were performed at 37° C. The efficacy of the enhanced broad range bactericides was determined by assaying bactericidal activity as measured by the percent bacterial survival after treatment with the bactericide. Generally, after incubation of a 10^7 cell per ml suspension of target species with the novel bactericide for specified lengths of time, bacteria were collected by centrifugation for 2 minutes. The bacterial pellet was washed free of the bactericide with a rescue buffer, termed herein Phage buffer (50 mM Tris-HCl buffer pH 7.8, 1 mM MgSO4, 4 mM CaCl2, 0.1 M Nacl, and 0.1% gelatin), resuspended and serially diluted into Phage buffer, and 100 μl of the suspended bacteria were spread on nutrient agar plates. Surviving bacteria were determined by scoring colony forming units (CFU) after incubation for 24-48 hours at 37° C.
The suspensions were incubated for various times ranging from 0.5 to 60 minutes with the bactericides. The bactericidal efficacy of the bactericides was estimated by determining the percent survival of bacteria.
Incubations were performed in 20 mM TrisHCl, pH 7.3 at 37° C.

Staphyloccus aureus = assay: bactericidal activity, percent survival, Staphylococcus aureus; type: cell-based
Method: as §2
Incubations were performed in 50 mM sodium acetate buffer, pH 5.0 or 20 m
TrisHCl buffer, pH 8.0 at 37° C.

[3] = tested on: S. typhimurium on chicken muscle; assay: bactericidal activity towards S. typhimurium on chicken muscle (unadhered cells); type: cell-based, Salmonella typhimurium
Method: as §2
Incubations were performed in either 50 mM sodium acetate, pH 5.0, or 20 mM […], pH 8.0 at 37° C.
Cubes of chicken muscle were cleansed with sodium hypochlorite and povidone iodine prior to use. To inoculate the tissue, the cubes of chicken muscle were dipped into a 10^8 cells/ml suspension of S. typhimurium in 20 mM Tris HCl, pH 8.0. Excess moisture was removed from dipped cubes by tapping. The chicken samples were placed into sufficient buffer containing the nisin composition to cover the tissue and incubated for 2 hours at 37° C. after which the tissue was removed to sufficient Phage buffer to cover the tissue. The bacteria remaining in the test solution were collected by centrifugation, washed with Phage buffer, and combined with bacteria washed from the tissue by Phage buffer. The combined samples (termed "unadhered" cells) were serially diluted and 100μl aliquots were plated for determination of surviving bacteria.
(§4) Cubes of chicken muscle were cleansed with sodium hypochlorite and povidone iodine prior to use. To inoculate the tissue, the cubes of chicken muscle were dipped into a 10^8 cells/ml suspension of S. typhimurium in 20 mM Tris HCl, pH 8.0. Excess moisture was removed from dipped cubes by tapping. The tissue was placed into sufficient buffer containing the nisin compositions to cover the tissue, and incubated for 2 hours at 37° C. after which the tissue was removed to sufficient Phage buffer to cover the tissue. The bacteria remaining in the test solution were collected by centrifugation, washed with Phage buffer, and combined with bacteria washed from the tissue by Phage buffer. The combined samples (termed "unadhered" cells) were serially diluted and 100 μl aliquots were plated for determination of surviving bacteria.
as §4, with “cleaned” for “cleansed”, “with” for “with sodium”, “50” for “20”, “sodium acetate buffer,” for “Tris HCl,”, “5.0.” for “8.0.”, “containing” for “containing the”

Coryneform bacteria = assay: bactericidal activity, percent survival, axillary Coryneform bacteria; type: cell-based; details: 20 mM Tris-HCl pH 8.0
Method: as §2, §3

E. coli = assay: bactericidal activity, percent bacterial survival, E. coli suspension; type: cell-based, Escherichia coli; details: for Percentage E. coli Survival at 2 hours: 20 mM Tris pH 8.0, 37° C.
Method: as §1
The effects of the bactericide were measured as a function of percentage bacteria survival after 2 hours.
Incubations were performed in 20 mM Tris, pH 7.0 at 37° C.

S. typhimurium = assay: bactericidal activity, percent bacterial survival, S. typhimurium suspension; type: cell-based, Salmonella typhimurium; details: for Percentage S. typhimurium Survival at 3 hours: 20 mM Tris pH 8.0, 37° C.
Method: as §1
The control (Test #1) is identical to the control of Example 1 (Table 1).

Streptococcus agalactiae = assay: bactericidal activity towards Streptococcus agalactiae in milk; type: cell-based
Method: as §2
However, the combination of the two agents, 0.1% monolaurin and nisin 0.2 μg/ml, is extremely potent towards S. agalactiae. […] Thus, when the application of nisin is limited by its available activity, a bactericide comprising nisin with a surfactant can be expected to be more useful.
(§5) Incubations were in milk at 37° C.

Listeria monocytogenes [4] = assay: bactericidal activity towards Listeria monocytogenes in milk; type: cell-based
Method: as §2
An example of where the application of nisin is limited by its available activity is illustrated by the data in Table 15B.
as §5

Streptococcus mutans [5] = assay: rapid bactericidal activity towards Streptococcus mutans in the presence of divalent cation, 10% fetal calf serum; type: cell-based; details: nisin 3, no EDTA, CaCl3 0 mM
Method: as §6
Incubations performed in 10% Fetal Calf Serum at 37° C.

## O=C([O-])CN(CCN(CC(=O)[O-])CC(=O)O)CC(=O)O.[Na+].[Na+] [EDTA]
K. pneumoniae; nisin 0, EDTA 20 mM
  % Survival at 2 hours (K. pneumoniae): 22%
Listeria monocytogenes [1]; nisin 0, EDTA 1.0 mM
  % Survival after 2 hr (L. monocytogenes): 84%
Streptococcus mutans [2]; incubation 3 min
  % Survival (S. mutans kinetics): 100%
Streptococcus mutans [2]; incubation 60 min
  % Survival (S. mutans kinetics): 100%
Staphyloccus aureus; nisin 0, EDTA 0.3 mM, pH 8.0
  % Survival 2 hr (S. aureus): 100%
Staphyloccus aureus; nisin 0, EDTA 1.0 mM, pH 8.0
  % Survival 2 hr (S. aureus): 81%
Staphyloccus aureus; nisin 0, EDTA 3.0 mM, pH 5.0
  % Survival 2 hr (S. aureus): 100%
Staphyloccus aureus; nisin 0, EDTA 3.0 mM, pH 8.0
  % Survival 2 hr (S. aureus): 100%
Staphyloccus aureus; nisin 0, EDTA 10 mM, pH 8.0
  % Survival 2 hr (S. aureus): 100%
Staphyloccus aureus; nisin 0, EDTA 30 mM, pH 8.0
  % Survival 2 hr (S. aureus): 100%
[3]; nisin 0, EDTA 1.0 mM, BSA 1.0%, pH 8.0
  % Survival at 2 hours: 27%
[3]; nisin 0, EDTA 10 mM, pH 5.0
  % Survival at 2 hours, unadhered cells: 6.4%
[3]; nisin 0, EDTA 10 mM, pH 8.0
  % Survival at 2 hours, unadhered cells: 5.2%
Coryneform bacteria; nisin 0, EDTA 0.3 mM
  % Survival 2 hr (Coryneform bacteria): 4.6%
Coryneform bacteria; nisin 0, EDTA 1.0 mM
  % Survival 2 hr (Coryneform bacteria): 3.6%
Coryneform bacteria; nisin 0, EDTA 3.0 mM
  % Survival 2 hr (Coryneform bacteria): 8%
Coryneform bacteria; nisin 0, EDTA 10 mM
  % Survival 2 hr (Coryneform bacteria): 36%
E. coli; nisin 0, EDTA 1.0 mM, 20 mM Tris pH 7.0
  % survival at 1 min (E. coli): 100%
S. typhimurium; nisin 0, EDTA 1.0 mM, BSA 1.0%, 20 mM Tris pH 8.0
  % Survival at 2 hours (S. typhimurium): 63%
S. typhimurium; nisin 0, EDTA 2.0 mM, 20 mM Tris pH 8.0
  % Survival at 2 hours (S. typhimurium): 8.7%
S. typhimurium; nisin 0, EDTA 2.0 mM, 50 mM sodium acetate pH 5.0
  % Survival at 2 hours (S. typhimurium): 38.7%
S. typhimurium; nisin 0, EDTA 10 mM, 20 mM Tris pH 8.0
  % Survival at 2 hours (S. typhimurium): 14%
S. typhimurium; nisin 0, EDTA 10 mM, 50 mM sodium acetate pH 5.0
  % Survival at 2 hours (S. typhimurium): 15.2%
S. typhimurium; nisin 0, EDTA 20 mM
  Percentage S. typhimurium Survival at 3 hours: 2.5%
S. typhimurium; nisin 0, EDTA 50 mM, 20 mM Tris pH 8.0
  % Survival at 2 hours (S. typhimurium): 11.4%
S. typhimurium; nisin 0, EDTA 50 mM, 50 mM sodium acetate pH 5.0
  % Survival at 2 hours (S. typhimurium): 3.5%
S. typhimurium; nisin 0, EDTA 100 mM, 20 mM Tris pH 8.0
  % Survival at 2 hours (S. typhimurium): 45%

## CCCCCCCCCCCC(=O)OCC(O)CO (stereo not drawn) [Monolaurin, monolaurin]
Streptococcus agalactiae; monolaurin at concentrations up to 0.1%
  bactericidal activity towards Streptococcus agalactiae: little significant bactericidal activity
Streptococcus agalactiae; nisin 0, monolaurin 0.01%, 37° C.
  % survival at 2 h (S. agalactiae): 100%
Streptococcus agalactiae; nisin 0, monolaurin 0.1%, 37° C.
  % survival at 2 h (S. agalactiae): 4.5%

## Triton X-100
E. coli; nisin 0, EDTA 0, Triton X-100 1.0%
  Percentage E. coli Survival at 2 hours: 100%
E. coli; tests #3 and #4, Table 4
  bactericidal activity towards E. coli: no significant bactericidal activity

## monooleate
Listeria monocytogenes [4]; monooleate by itself
  bactericidal activity towards L. monocytogenes: no bactericidal activity
Listeria monocytogenes [4]; nisin 0, monooleate 0.1%, 37° C.
  % Survival 2 hr (L. monocytogenes): 67%
Listeria monocytogenes [4]; nisin 0, monooleate 1.0%, 37° C.
  % Survival 2 hr (L. monocytogenes): 63%

## nisin
K. pneumoniae; nisin 100 μg/ml, EDTA 0
  % Survival at 2 hours (K. pneumoniae): 50%
K. pneumoniae; nisin 300 μg/ml, EDTA 0
  % Survival at 2 hours (K. pneumoniae): 38%
Listeria monocytogenes [4]; nisin 100 μg/ml, monooleate 0, 37° C.
  % Survival 2 hr (L. monocytogenes): 0.56%
Listeria monocytogenes [1]; nisin 3.0 μg/ml, EDTA 0
  % Survival after 2 hr (L. monocytogenes): 0.71%
Streptococcus mutans [2]; nisin 0.1 μg/ml, EDTA 0, 20 mM Tris-HCl pH 8.0
  % Survival after 2 hr (S. mutans): 4.3%
Streptococcus agalactiae; nisin 0.02 μg/ml, monolaurin 0, 37° C.
  % survival at 2 h (S. agalactiae): 100%
Streptococcus agalactiae; nisin 0.2 μg/ml, monolaurin 0, 37° C.
  % survival at 2 h (S. agalactiae): 2.2%
Streptococcus agalactiae; nisin at concentrations up to 0.2 μg/ml
  bactericidal activity towards Streptococcus agalactiae: does not exhibit significant bactericidal activity
Staphyloccus aureus; nisin 3.0 μg/ml, EDTA 0, pH 5.0
  % Survival 2 hr (S. aureus): 0.6%
Staphyloccus aureus; nisin 3.0 μg/ml, EDTA 0, pH 8.0
  % Survival 2 hr (S. aureus): 7.4%
[3]; nisin 300 μg/ml, EDTA 0, pH 5.0
  % Survival at 2 hours, unadhered cells: 0.1%
[3]; nisin 300 μg/ml, EDTA 0, pH 8.0
  % Survival at 2 hours, unadhered cells: 7.5%
[3]; nisin 300 μg/ml, EDTA 0, pH 8.0, contains 1% BSA
  % Survival at 2 hours, unadhered cells: 0.02%
Coryneform bacteria; nisin 3 μg/ml, EDTA 0
  % Survival 2 hr (Coryneform bacteria): 0.22%
Streptococcus mutans [5]
  % survival at 1 min. (S. mutans): 2.9%
E. coli; nisin 30 μg/ml, EDTA 0, Triton X-100 0
  Percentage E. coli Survival at 2 hours: 27%
E. coli; nisin 100 μg/ml, EDTA 0, Triton X-100 0
  Percentage E. coli Survival at 2 hours: 25%
E. coli; nisin 300 μg/ml, EDTA 0, Triton X-100 0
  Percentage E. coli Survival at 2 hours: 8.5%
S. typhimurium; Table 8 test 1: nisin 10 μg/ml, EDTA 0, BSA 0
  % Survival at 2 hours (S. typhimurium): 51.3%
S. typhimurium; Table 8 test 1: nisin 100 μg/ml, EDTA 0, BSA 0
  % Survival at 2 hours (S. typhimurium): 1.6%
S. typhimurium; nisin 10 μg/ml, EDTA 0 mM
  Percentage S. typhimurium Survival at 3 hours: 51.3%
S. typhimurium; nisin 50 μg/ml, EDTA 0 mM
  Percentage S. typhimurium Survival at 3 hours: 7.0%
S. typhimurium; nisin 100 μg/ml, EDTA 0, 20 mM Tris pH 8.0 (Table 6)
  % Survival at 2 hours (S. typhimurium): 4%
S. typhimurium; nisin 100 μg/ml, EDTA 0, 50 mM sodium acetate pH 5.0
  % Survival at 2 hours (S. typhimurium): 0.6%
S. typhimurium; nisin 100 μg/ml, EDTA 0 mM
  Percentage S. typhimurium Survival at 3 hours: 1.6%

— patent US5135910A, “Nisin compositions for use as enhanced, broad range bactericides” (The Public Health Research Institute of the City of New York, priority 1991, dated 1992)
